From patent US20260256140A1, “BIPHENYL COMPOUNDS CONTAINING SUBSTITUTED SULFIDE (SULFOXIDE) GROUPS AND USES THEREOF” (METISA BIOTECHNOLOGY CO., LTD, priority 2021, published 2026)

Legend:
Assay type in all cases: in vivo
Mythimna separata = experiment: Activity against Mythimna separata, Airbrush spray on maize leaf pieces; conditions: 500 mg/L, 3 days after administration, 3rd-instar larvae
Description: Insecticidal activity determination experiments were conducted on several insects using the compound of the present invention and control compounds KC1, KC2, and KC3. Determination methods were described below. The compounds to be determined were each dissolved in a mixed solvent of acetone/methanol (1:1), and diluted using water containing 0.1% (wt) tween-80 to desired concentrations. With Mythimna separata and Plutella xylostella as targets, Airbrush spray method was adopted for activity determination. Determination Method: maize leaves were cut into 2 cm leaf pieces, and the front and back of each leaf piece were sprayed under an Airbrush spray treatment pressure of 10 psi (approximate to 0.7 kg/cm^2) and with a spray volume of 0.5 mL. After drying in the shade, 10 3rd-instar larvae were inoculated for each treatment, and each treatment was repeated for 3 times. After the treatment, the leaf pieces were put into an observation chamber at 25° C. and with a relative humidity of 60% to 70%, and the number of living larvae was investigated 3 days after the administration of the compounds, and the death rates were calculated.

Plutella xylostella = experiment: Activity against Plutella xylostella, Airbrush spray on cabbage leaf discs; conditions: 500 mg/L, 3 days after administration, 3rd-instar larvae
Description: Insecticidal activity determination experiments were conducted on several insects using the compound of the present invention and control compounds KC1, KC2, and KC3. Determination methods were described below. The compounds to be determined were each dissolved in a mixed solvent of acetone/methanol (1:1), and diluted using water containing 0.1% (wt) tween-80 to desired concentrations. With Mythimna separata and Plutella xylostella as targets, Airbrush spray method was adopted for activity determination. Determination Method: cabbage leaves were formed into leaf discs having a diameter of 2 cm using a puncher, and the front and back of each leaf disc were sprayed under an Airbrush spray treatment pressure of 10 psi (approximate to 0.7 kg/cm^2) and with a spray volume of 0.5 mL. After drying in the shade, 10 3rd-instar larvae were inoculated for each treatment, and each treatment was repeated for 3 times. After the treatment, the leaf discs were placed into an observation chamber at 25° C. and with a relative humidity of 60% to 70%, and the number of living larvae was investigated 3 days after the administration of the compounds, and the death rates were calculated.

Tetranychus cinnabarinus = experiment: Greenhouse acaricidal activity determination on Phaseolus vulgaris seedlings; conditions: 3 days after administration, parallel comparison
Description: Greenhouse acaricidal activity determination was carried out on the compounds of the present invention. A determination method was described below. […] Two true leaves of Phaseolus vulgaris seedlings were inoculated with adult Tetranychus cinnabarinus and a basic number was investigated. An entire seedling was then sprayed using a hand-held sprayer. Each treatment was repeated for 3 times. After the treatment, the seedlings were placed into a standard observation chamber, and the number of living mites was investigated 72 hours later, and the death rates were calculated. Parallel comparison experiments on acaricidal activity were conducted for Tetranychus cinnabarinus using the compounds 1.22, 1.23, and 1.24 and control compounds (3 days after the administration of the compounds), and the determination method was as described above; and the results were shown in Table 14: […]

SMILES	death rate for Mythimna separata (Mythimna separata) [%]	death rate for Plutella xylostella (Plutella xylostella) [%]	Death Rate (%, 3 days after the administration of the compounds) 1.25 mg/L (Tetranychus cinnabarinus) [%]	Death Rate (%, 3 days after the administration of the compounds) 2.5 mg/L (Tetranychus cinnabarinus) [%]
Cc1cc(F)c(-c2cc(SCC(F)(F)F)c(C)cc2F)cc1SCC(F)(F)F [KC1]	0	0	22.9	52.0
Cc1cc(F)c(-c2cc([S+]([O-])CC(F)(F)F)c(C)cc2F)cc1SCC(F)(F)F (stereo not drawn) [KC2]	0	0	0	50.0
Cc1cc(F)c(-c2cc([S+]([O-])CC(F)(F)F)c(C)cc2F)cc1[S+]([O-])CC(F)(F)F (stereo not drawn) [KC3]	0	0	0	0
